Data: patent US20130316027A1, “ANTIMICROBIAL COMPOSITION” (priority 2011, published 2013)

How the values were obtained:
MS2 Phage = experiment: Virucidal suspension test (EN14476), virus kill of MS-2 bacteriophage; type: cell-based; conditions: contact time five minutes, clean conditions (bovine albumin), MS2 Phage control 6.36, Table 3
Description: (§1) The virucidal activity of various test solutions were measured using the following protocol.
(§2) A standard EST protocol (EN14476) was followed for the evaluation of activity of antiviral actives in suspension test. Antiviral activity of actives was tested in clean conditions.
(§3) Clean conditions: To create clean conditions, 0.3 g of bovine albumin fraction V was dissolved in 100 ml of water and sterilised by passing the solution through a 0.2 μm filter).
Preparation of test mixture: To prepare the test mixture, 1 ml of interfering substance (Bovine Albumin) was pipetted into a suitable container, followed by addition of 1 ml of test virus suspension. To this, 8 ml of product test solution was added. At the end of chosen contact time period, 100 μl of the test mixture was added to resin column. Centrifugation of microspin column (735×g, 2 min). The elutant was diluted up to 10^−6 in ice cold virus growth medium. The infectivity of each dilution was measured by TCID50 using the Spaerman-Karber formula. Titration of Virus: Monolayers of cells were grown in 96-well tissue-culture plates (Costar) at 37° C. in an atmosphere of 95% air and 5% carbon dioxide (CO2). […] The virus titre was calculated by TCID50 (Tissue culture infective dose) using the Spaerman-Karber formula. […]
Various compositions as shown in Table-3 were prepared and their virucidal activity was measured using the procedure given earlier. […]

[1] = system: RSV (Respiratory syncitial virus); experiment: Virucidal suspension test (EN14476), virus kill of RSV; type: cell-based; conditions: contact time five minutes, clean conditions (bovine albumin)
Description: as §1, §2, §3
(§4) Preparation of test mixture: To prepare the test mixture, 1 ml of interfering substance (Bovine Albumin) was pipetted into a suitable container, followed by addition of 1 ml of test virus suspension. To this, 8 ml of product test solution was added. At the end of chosen contact time period, 100 μl of the test mixture was added to resin column. Centrifugation of microspin column (735×g, 2 min). The elutant was diluted up to 10^−6 in ice cold virus growth medium. The infectivity of each dilution was measured by TCID50 using the Spaerman-Karber formula. Titration of Virus: Monolayers of cells were grown in 96-well tissue-culture plates (Costar) at 37° C. in an atmosphere of 95% air and 5% carbon dioxide (CO2). Tenfold dilutions of virus suspension were prepared in virus growth medium. One hundred microlitres of each dilution was added to five replicate wells in 96-well tissue-culture plates. Cell controls were included on each plate. Plates were incubated at 37° C. in an atmosphere of 95% air/5% CO2. Cultures were observed daily for viral cytopathic effect for a period of seven days after which they were discarded. The virus titre was calculated by TCID50 (Tissue culture infective dose) using the Spaerman-Karber formula.
(§5) Negative logarithm of the 50% end point=Negative logarithm of the highest virus concentration used−[(Sum of % affected at each dilution/100−0.5)×([…])]
Various compositions as shown in Table-2 were prepared and their virucidal activity was measured using the procedure given earlier. […]
Various compositions as shown in Table-5 were prepared and their virucidal activity was measured using the procedure given earlier. […]

FCV (Feline Calcivirus) = experiment: Virucidal suspension test (EN14476), viral kill of FCV; type: cell-based, Feline Calicivirus; conditions: contact time five minutes, clean conditions (bovine albumin)
Description: as §1, §2, §3, §4, §5
Various compositions as shown in Table-1 were prepared and their virucidal activity was measured using the procedure given earlier. […]
Various compositions as shown in Table-4 were prepared and their virucidal activity was measured using the procedure given earlier. […]

## benzalkonium chloride [Example 10]
MS2 Phage
  amount of virus remaining, Log TCID50/0.1 ml: 1.94 Log TCID50/0.1 ml
[1]; RSV Control 4.70, Table 5
  amount of virus remaining, Log TCID50/0.1 ml: 3.90 Log TCID50/0.1 ml
FCV (Feline Calcivirus); FCV Control 5.50, Table 4
  amount of virus remaining, Log TCID50/0.1 ml: 3.10 Log TCID50/0.1 ml

## benzalkonium chloride [Example 2]
[1]; RSV Control 5.00, Table 2
  amount of virus remaining, Log TCID50/0.1 ml: 2.50 Log TCID50/0.1 ml
FCV (Feline Calcivirus); FCV Control 4.50, Table 1
  amount of virus remaining, Log TCID50/0.1 ml: 3.25 Log TCID50/0.1 ml

## COc1cc(/C=C/C(=O)CC(=O)/C=C/c2ccc(O)c(OC)c2)ccc1O [Example 3, Curcumin]
[1]; RSV Control 5.00, Table 2
  amount of virus remaining, Log TCID50/0.1 ml: 4.65 Log TCID50/0.1 ml
FCV (Feline Calcivirus); FCV Control 4.50, Table 1
  amount of virus remaining, Log TCID50/0.1 ml: 3.40 Log TCID50/0.1 ml
